Laboratory results taken from patent US20020004220A1 (priority 1999, published 2002).
Values after ≈ are worked out from the molar mass of the structure shown.

Experiments:
[1] = system: Escherichia coli; assay: microbe, parasite or virus in culture; type: cell-based; conditions: read-out: MIC (MIC99)
[2] = system: Staphylococcus aureus; assay: microbe, parasite or virus in culture; type: cell-based; conditions: read-out: MIC (MIC99)

Compound	MIC99 [1]	MIC99 [2]
O=C(N[C@H](CO)[C@H](O)c1ccc([N+](=O)[O-])cc1)C(Cl)Cl [Chloramphenicol]	1.9 µg/mL (≈ 5.88 µM)	1.9 µg/mL (≈ 5.88 µM)
CCn1cc(C(=O)O)c(=O)c2cc(F)c(N3CCNCC3)cc21 [Norfloxacin]	0.045 µg/mL (≈ 0.141 µM)	0.85 µg/mL (≈ 2.66 µM)
CC1(C)S[C@@H]2[C@H](NC(=O)Cc3ccccc3)C(=O)N2[C@H]1C(=O)O [Penicillin]	3 µg/mL (≈ 8.97 µM)	0.024 µg/mL (≈ 0.0718 µM)
CO[C@H]1/C=C/O[C@@]2(C)Oc3c(C)c(O)c4c(O)c(c(/C=N/N5CCN(C)CC5)c(O)c4c3C2=O)NC(=O)/C(C)=C\C=C\[C@H](C)[C@H](O)[C@@H](C)[C@@H](O)[C@@H](C)[C@H](OC(C)=O)[C@@H]1C [Rifampicin]	5 µg/mL (≈ 6.08 µM)	0.004 µg/mL (≈ 0.00486 µM)
NC[C@H]1O[C@H](O[C@H]2[C@H](O)[C@@H](O[C@H]3O[C@H](CO)[C@@H](O)[C@H](N)[C@H]3O)[C@H](N)C[C@@H]2N)[C@H](N)C[C@@H]1O [Tobramycin]	1.2 µg/mL (≈ 2.57 µM)	0.27 µg/mL (≈ 0.578 µM)
CN[C@H](CC(C)C)C(=O)N[C@H]1C(=O)N[C@@H](CC(N)=O)C(=O)N[C@H]2C(=O)N[C@H]3C(=O)N[C@H](C(=O)N[C@H](C(=O)O)c4cc(O)cc(O)c4-c4cc3ccc4O)[C@H](O)c3ccc(c(Cl)c3)Oc3cc2cc(c3O[C@@H]2O[C@H](CO)[C@@H](O)[C@H](O)[C@H]2O[C@H]2C[C@](C)(N)[C@H](O)[C@H](C)O2)Oc2ccc(cc2Cl)[C@H]1O [Vancomycin]		0.65 µg/mL (≈ 0.449 µM)
